Measurements taken from PMC11863921 (BMC Biology, 2025).
“Also recorded” adds a separate entry of the source.

Test system: AsolLGR4(short)
Assay: CRE reporter gene assay in HEK-293T cells transfected with AsolLGR4(short)
Type: cell-based, A. cf. solaris
Details: HEK-293T cells with AsolLGR4(short), any concentration tested
Description: The coding sequences for AsolRXFP/LGR3, AsolLGR4(short), and AsolLGR4(long) lacking a native N-terminal signal peptide were optimized for mammalian codon usage, but with the addition of a 5′ nucleotide sequence encoding an N-terminal bovine prolactin precursor signal peptide followed by a FLAG tag. The coding sequences for each construct are presented in Additional file 16: Dataset S9. Following the addition of a Kozak sequence (GCCACC) before the start codon of each coding sequence, the receptor cDNAs were synthesized in pUC57 vectors (GenScript, Hong Kong) with BamHI and XhoI restriction sites and Gateway‐compatible attB5 and attB2 sites at both ends to also allow recloning into pcDNA3.1/Zeo ( +) or Gateway (Invitrogen) vectors. pUC57 vectors were first digested with BamHI and XhoI restriction enzymes together with pcDNA3.1/Zeo ( +) followed by agarose gel purification of the digested DNA. Receptor constructs were ligated into the cut pcDNA3.1/Zeo ( +) vector to produce pcDNA-AsolRXFP/LGR3, pcDNA − AsolLGR4(short), and pcDNA − AsolLGR4(long). The sequences were confirmed by using Sanger sequencing on both strands. The AsolRXFP/LGR3 sequence was cloned into a lentiviral vector under the control of the constitutive human Ef1α promoter using Gateway technology (Invitrogen), according to the manufacturer’s instructions. […]

Substance	cAMP activity / CRE reporter gene activation
Acanthaster cf. solaris Relaxin-like gonad-stimulating peptide 1 [AsolRGP1]	no significant increase in cAMP levels; also recorded: Neither AsolRGP1 nor AsolRGP2 induced CRE reporter gene activation
Acanthaster cf. solaris Relaxin-like gonad-stimulating peptide 2 [AsolRGP2]	no significant increase in cAMP levels; also recorded: Neither AsolRGP1 nor AsolRGP2 induced CRE reporter gene activation
